The target in one assay is T1, USP5 (Homo sapiens, UniProt P45974).
T1 sequence (P45974 1-858): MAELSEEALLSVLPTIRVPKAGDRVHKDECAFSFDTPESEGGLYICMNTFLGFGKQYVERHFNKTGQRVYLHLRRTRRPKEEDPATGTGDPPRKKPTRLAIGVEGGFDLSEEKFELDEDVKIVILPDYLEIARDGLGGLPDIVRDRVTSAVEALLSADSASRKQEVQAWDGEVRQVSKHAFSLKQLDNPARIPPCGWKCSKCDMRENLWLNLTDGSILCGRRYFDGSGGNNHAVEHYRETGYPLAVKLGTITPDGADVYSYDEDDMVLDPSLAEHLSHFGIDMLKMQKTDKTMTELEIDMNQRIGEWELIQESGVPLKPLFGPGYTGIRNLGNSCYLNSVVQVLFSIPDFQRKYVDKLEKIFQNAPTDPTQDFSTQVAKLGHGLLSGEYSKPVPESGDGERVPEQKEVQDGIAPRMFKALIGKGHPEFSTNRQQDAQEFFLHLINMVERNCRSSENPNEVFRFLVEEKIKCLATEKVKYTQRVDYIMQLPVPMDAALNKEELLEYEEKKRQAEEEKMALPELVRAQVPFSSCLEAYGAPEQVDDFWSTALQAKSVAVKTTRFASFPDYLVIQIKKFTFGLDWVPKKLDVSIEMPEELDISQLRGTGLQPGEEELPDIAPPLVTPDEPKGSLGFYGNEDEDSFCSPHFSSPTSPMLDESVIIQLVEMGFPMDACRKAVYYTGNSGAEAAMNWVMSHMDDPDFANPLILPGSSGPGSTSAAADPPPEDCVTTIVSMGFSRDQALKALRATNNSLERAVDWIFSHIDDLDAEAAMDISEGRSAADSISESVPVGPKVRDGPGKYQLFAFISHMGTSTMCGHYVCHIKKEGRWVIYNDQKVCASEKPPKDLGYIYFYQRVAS
The assay is described as follows: HA-UbVS competitive labelling, non-proteasomal DUB. In kind it is binding. The text has this: (§1) The deubiquitinating activity of the proteasome is attributed to the action of three DUBs, UCHL5, USP14 and POH1, all localized within the 19S RP 26-28. Both UCHL5 and USP14 are sensitive to N-ethylmaleimide (NEM), a general inhibitor of cysteine proteases, whereas POH1 is insensitive to inhibition by NEM but sensitive to metal chelators such as N,N,N,N-tetrakis-(2-pyridylmethyl)ethylenediamine (TPEN) (29). […] To identify specifically which DUBs were inhibited by b-AP15 treatment, competitive labelling experiments were performed using hemagglutinin tagged ubiquitin vinylsulphonone (HA-UbVS), an active site directed probe that irreversibly reacts with DUBs of the cysteine class (26).
(§2) For labelling of DUBs in cell lysates sub confluent cells were harvested by trypsinization, washed three times with PBS, and centrifuged at 1500 RPM for 5 min. Cell pellets were lysed with buffer (50 mM HEPES pH 7.4, 250 mM sucrose, 10 mM MgCl2, 2 mM ATP, 1 mM DTT) on ice for 15 min. Debris was removed by centrifugation and 25 μg of protein was labelled with 1 μM HA-UbVS for 30 min at 37° C. Samples were resolved by SDS-PAGE and analyzed by immunoblotting with indicated antibodies.

The next assay addresses T2, UCHL1 (Homo sapiens, UniProt P09936).
T2 sequence (P09936 1-223): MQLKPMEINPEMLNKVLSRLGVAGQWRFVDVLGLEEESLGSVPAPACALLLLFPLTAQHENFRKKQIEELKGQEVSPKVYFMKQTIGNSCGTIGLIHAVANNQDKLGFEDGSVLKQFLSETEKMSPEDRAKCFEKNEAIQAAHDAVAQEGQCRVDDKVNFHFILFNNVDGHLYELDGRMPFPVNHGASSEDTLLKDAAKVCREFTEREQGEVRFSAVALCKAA
The assay is described as follows: HA-UbVS competitive labelling, non-proteasomal DUB. In kind it is binding.
Source text: as §1, §2

For the next assay, the system named is chaperone genes. Kind of assay: Microarray expression of chaperone genes after b-AP15 treatment. In kind it is cell-based. To be noted: b-AP15 vs vehicle. The procedure:
The microarray based gene expression analysis and the Connectivity Map (CMAP) analysis was performed as previously described (40). Briefly, MCF7 cells were exposed to b-AP15 (1 μM, 6 h) or vehicle (0.1% DMSO, 6 h). RNA was isolated (RNeasy miniprep kit, Qiagen) followed by quality control, labelling and hybridization to Genome U133 Plus 2.0 arrays (Affymetrix Inc). Raw data was normalized using Mas5 (Affymetrix Inc.) and rank ordered. For selection of the 30 most induced (up tags) and the 30 most suppressed (down tags) transcripts the following criteria were used: Up tags, present call and expression over 300 arbitrary in the b-AP15 experiment; Down tags, present call after both b-AP15 and vehicle treatment, and expression over 300 arbitrary units in the vehicle experiment. For CMAP compatibility only tags (i.e. probes) present on HG U133A were used. Raw and normalized expression data have been deposited at Gene Expression Omnibus (http://www.ncbi.nlm.nih.gov/geo/) with accession number GSE24150.
Expression of chaperone genes observed in bAP15-treated cells (Table 1) is indicative of induction of a proteotoxic response.

As to `C=CC(=O)N1C/C(=C\c2ccc([N+](=O)[O-])cc2)C(=O)/C(=C/c2ccc([N+](=O)[O-])cc2)C1` [b-AP15], the “activity of non-proteasomal DUB USP5” value on USP5 is on record as “without affecting the activity”. Besides, the “activity of non-proteasomal DUB UCHL1” value on UCHL1 is on record as “without affecting the activity”. Moreover, in the assay on chaperone genes (probe set 117_at), the “Fold change HSPA6” value worked out at 725. In the assay with chaperone genes (probe set 200666_s_at), the “Fold change DNAJB1” value is given as 6. In addition, in the assay on chaperone genes (probe set 200800_s_at), the “Fold change HSPA1A” value stood at 4. For the same compound, the “Fold change DNAJA1” value in the assay with chaperone genes (probe set 200880_at) was 4. Further, in the assay with chaperone genes (probe set 202581_at), the “Fold change HSPA1B” value is listed as 5. For the same compound, the “Fold change DNAJB9” value in the assay on chaperone genes (probe set 202843_at) is recorded as 4. For the same compound, the entries for the “Fold change DNAJB4” value in the assay on chaperone genes (probe set 203810_at) and in the assay with chaperone genes (probe set 203811_s_at) were 16 and 5, respectively. For the same compound, the “Fold change HSPA4L” value with chaperone genes (probe set 205543_at) is listed as 13. Besides, in the assay with chaperone genes (probe set 206976_s_at), the “Fold change HSPH1” value is 5. Moreover, in the assay on chaperone genes (probe set 211016_x_at), the “Fold change HSPA4” value worked out at 4. Further, in the assay on chaperone genes (probe set 225061_at), the “Fold change DNAJA4” value stood at 30. In addition, in the assay with chaperone genes (probe set 241716_at), the “Fold change HSPD1” value turned out to be 6.
